What was measured:
5HT1A receptor = target: T1, 5HT1A receptor (Rattus norvegicus, UniProt P19327); assay: Brain Serotonin (5HT1A) radioreceptor Assay (3H-8-OH DPAT displacement, rat frontal cortex membranes); type: binding; settings: 3H-8-OH DPAT
T1 construct: Membrane fragments were prepared from prefrontal cortex; from tissue; host or cells: prefrontal/frontal cortex of female rats (about 150 g), membrane fragments
T1 sequence (P19327 1-422): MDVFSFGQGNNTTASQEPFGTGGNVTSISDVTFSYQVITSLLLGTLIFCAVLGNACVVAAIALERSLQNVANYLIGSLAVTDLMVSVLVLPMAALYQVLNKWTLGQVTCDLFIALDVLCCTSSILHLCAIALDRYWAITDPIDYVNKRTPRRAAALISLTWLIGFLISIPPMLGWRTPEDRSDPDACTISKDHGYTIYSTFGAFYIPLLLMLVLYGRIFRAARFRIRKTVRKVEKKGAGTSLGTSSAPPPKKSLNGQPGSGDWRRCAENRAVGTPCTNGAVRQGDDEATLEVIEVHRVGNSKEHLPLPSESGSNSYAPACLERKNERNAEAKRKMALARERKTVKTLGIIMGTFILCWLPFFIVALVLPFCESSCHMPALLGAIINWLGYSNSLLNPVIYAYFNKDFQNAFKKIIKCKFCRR
Protocol: Brain Serotonin (5HT1A) radioreceptor Assay
The text objects of this procedure were rat frontal cortex membranes. Membrane fragments were prepared from prefrontal cortex disected from brains obtained from female rats (≈150 g). The 5HT1A sites were labeled with ^3 H-8-OH dipropylaminotetralin (8-OH-DPAT). Membrane fragments, ^3 H-8-OH DPAT, TRIS buffer (pH 7.4) and unlabeled compound were incubated for 10 minutes at 37° C. and then for 10 minutes at 4° C. Separation of bound from unbound ^3 H-8-OH DPAT was performed by vacuum filtration on a glass fiber disc. The ability of a compound to compete with ^3 H-8-OH DPAT for binding sites is a measure of the affinity of the compound for the 5HT1A receptor. Specific binding was determined by the difference between total counts bound and the counts bound in the presence of […] 5-hydroxytryptamine.

[1] = test system: Serotonin-Induced Smooth Muscle Contractions (rabbit thoracic aorta); assay: Inhibition of Serotonin-Induced Smooth Muscle Contractions (isolated thoracic aorta strips); type: cell-based; settings: Oryctolagus cuniculus, 10 min, concentration shifting the serotonin dose curve 10x to the right, 10 min preincubation, read-out: 5-HT-Induced Smooth Muscle Contraction DR10
Protocol: Inhibition of Serotonin-Induced Smooth Muscle Contractions
The test objects of this Example were canines and rabbits. Rabbits were sacrificed by T-61 injection and the thoracic aorta was removed immediately. The aorta was placed in warmed, oxygenated Krebs-Henseleit buffer. After the tissue was cleaned, a 2-3 mm wide strip was cut helically from each aorta. A strip of approximately 5 cm was suspended in Krebs-Henseleit buffer at 37° C. in a 25 ml tissue bath and the tissues equilibrated at an initial resting tension of 4 g for 90-120 minutes. An initial serotonin dose curve, 0.01-10 μM was then done on each tissue, followed by a 60 minute washout and reequilibration. The test drug was then added for a 10 minute preincubation and another serotonin dose curve was done using 0.01-100 μM.
Results are expressed as DR10 values. This is the concentration of the compound required to shift the serotonin dose curve 10x to the right, i.e., the concentration of antagonist at which the concentration of serotonin required for 50% maximal contraction is increased ten-fold.

[2] = test system: serotonin-induced platelet aggregation; assay: Platelet Aggregation Assay (serotonin-induced); type: cell-based; settings: Platelet; human plasma, serotonin 5 μM
Protocol: Platelet Aggegation Assay
Human blood was collected into tubes containing sodium citrate. The plasma was separated by centrifugation and was used as the source of platelets. Serotonin (5 μM) was used as the agonist to induce platelet aggregation. A control aggregation curve (as measured by the decrease in absorbance in transmitted light) was obtained in the presence of serotonin and in the absence of test compound. The test compound was added to an identical sample in a cuvette for one minute before addition of serotonin to yield the experimental curve.

[3] = test system: alpha1 adrenergic receptor; assay: Alpha1 Blockade in vivo (inhibition of phenylephrine pressor response); design: species or system spontaneously hypertensive rats (SHR); settings: anesthetized, vagotomized SHR; i.v.
Protocol: The potency of these compounds as alpha1 adrenergic antagonists was determined using the following procedure: adult male spontaneously hypertensive rats (SHR) were anesthetized and bilaterally vagotomized. A carotid artery and jugular vein were cannulated for monitoring mean arterial blood pressure and drug administration, respectively. The percent inhibition of alpha1 adrenergic receptor activation was quantified by measuring pressor responses to phenylephrine before and after antagonist treatment. […] Compounds were tested to the limits of their solubility for intravenous administration.

[4] = test system: Spontaneously Hypertensive Rats (SHR); assay: Antihypertensive Activity in Spontaneously Hypertensive Rats (SHR); type: in vivo, rat; settings: @ 5 mg/kg p.o., 4 h monitoring
Protocol: Antihypertensive Activity in Spontaneously Hypertensive Rats (SHR)
Antihypertensive activity was assessed using the following procedure. Adult male SHR were surgically prepared with arterial cannuli under light ether anesthesia and given 60-90 minute post-surgical recovery. Mean arterial pressure (MAP) was continuously monitored via the arterial line. After baseline MAP was recorded, groups of 3-6 SHR received a single dose of drug or vehicle (0.5% methylcellulose) administered by gavage at doses of 1 to 5 mg/kg.MAP was monitored for four hours post-dosing.
Maximal changes in MAP were reported.

serotonin receptors = assay: Inhibition of 5-HTP-Induced Head Twitching; type: in vivo; settings: male CD1 mice
Protocol: Inhibition of 5-HTP-Induced Head Twitching
This test detects compounds with antagonistic activity of serotonin receptors in vivo, and is a modified procedure of Corne, Pickering and Warner, Brit. J. Pharmacol. 20, 106 (1963). Groups of male CD1 mice were fasted overnight but allowed water ad libitum. They were deprived of water during the course of the experiment. The mice were weighed and treated orally or parenterally with the test compound in a dose volume of 10 ml/kg. Doses of test substance were calculated based upon the active compound. Substances for oral administration were dissolved or suspended in a 0.5% aqueous methylcellulose (15 centipoises) vehicle containing 4 ml of Tween 80/l.
A dose of 160 mg/kg of L-5-hydroxytryptophan (5-HTP) was administered i.v. in a dose volume of 5 ml/kg after one hour. The test mouse was restrained in a rodent restrainer that allowed the tail to extend out the back. The tail was then placed in tepid (but not scalding) water for approximately 10 seconds to soften the skin and dilate the tail vein. A 1 ml syringe and 25 gauge (5/8 inch) needle was used to administer the 5-HTP solution into one of the lateral tail veins.
A timer was started after dosing with 5-HTP to the first animal of the test group. […] A head twitch involves the head, neck and ears and has the appearance of an exaggerated pinal reflex. The number of head twitches for each individual vehicle-treated mouse were recorded to establish a historical baseline.
The active compounds in the test block the twitch response (the response rated all or none).

5HT2 [5] = target: T2, 5HT2 (Rattus norvegicus, UniProt P14842); assay: Brain Serotonin (5-HT2) Radioreceptor Assay (3H-ketanserin displacement, rat frontal cortex membranes); type: binding; design: dissected from brains obtained from female rats; from tissue; host or cells: frontal cortex of female rats (about 150 g), membrane fragments; settings: 15 min at 37° C
Protocol: Brain Serotonin (5-HT2) Radioreceptor Assay
The test objects of this Example were rat frontal cortex membranes. Mebrane fragments were prepared from the frontal cortex dissected from brains obtained from female rats (≈150 g). […] Compound bound to the receptor site was separated from the remaining unbound compound by vacuum filtration. […] Specific binding was determined by the difference between total counts bound and counts bound in the presence of 10^-6 M methysergide.

5HT2 [6] = target: T2, 5HT2; assay: 5HT2 Blockade in vivo (antagonism of 5HT induced pressor responses); design: Spontaneously hypertensive rats were anesthetized with sodium pentobarbital; from tissue; host or cells: whole animal: anesthetized spontaneously hypertensive rats (vasculature); species or system spontaneously hypertensive rats; settings: rat, iv, read-out: 5-HT-Induced Pressor Response ED50
Protocol: Antagonism of 5HT induced pressor responses was used to assess 5HT2 blockade in vivo. Spontaneously hypertensive rats were anesthetized with sodium pentobarbital (50 mg/kg, i.p.). The right carotid artery and vein were cannulated for pressure recording and drug injection, respectively. The trachea was cannulated, the rat placed on a respirator and ventilated with room air at 50-60 breaths/minute. Rats were pretreated with prazosin hydrochloride (1 mg/kg, i.v., blous) and pentolinium tartrate (5 mg/kg, i.v., bolus). After 10 minutes equilibration, the rat was challenged with 5HT (100 μg/kg) which elevates mean arterial pressure (MAP) 60-100 mmHg; non-responsive rats were discarded.
After a baseline had been reestablished, bolus injections of 5HT (100 μg/kg, i.v.) were given and the MAP responses were evaluated both pre- and post-drug administration. 5HT challenges were repeated 10 minutes after each dose of antagonist. Up to three cumulative doses of the antagonist were given to a single animal.

T2 sequence (P14842 whole entry, the tested form may be a part): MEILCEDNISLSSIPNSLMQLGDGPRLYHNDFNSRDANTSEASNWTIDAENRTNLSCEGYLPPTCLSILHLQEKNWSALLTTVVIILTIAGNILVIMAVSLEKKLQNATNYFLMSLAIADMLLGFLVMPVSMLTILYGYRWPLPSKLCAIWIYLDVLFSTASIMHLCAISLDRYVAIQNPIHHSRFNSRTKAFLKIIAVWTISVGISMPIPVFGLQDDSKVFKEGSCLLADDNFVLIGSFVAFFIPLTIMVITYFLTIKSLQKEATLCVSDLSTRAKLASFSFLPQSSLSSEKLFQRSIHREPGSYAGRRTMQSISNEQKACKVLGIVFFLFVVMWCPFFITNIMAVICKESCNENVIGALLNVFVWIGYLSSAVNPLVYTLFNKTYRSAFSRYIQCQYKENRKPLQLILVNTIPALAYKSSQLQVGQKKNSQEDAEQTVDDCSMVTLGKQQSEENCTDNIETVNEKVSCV

Row | Structure (SMILES) | IC50 (5HT1A receptor; rat frontal cortex membranes, pH 7.4, read-out: Brain 5-HT1 Receptor IC50) [nM] | IC (10-fold shift) [1] [µM] | IC50 [2] [nM] | Phenylephrine-Induced Pressor Response ED50 [3] [mg/kg] | Antihypertensive Activity, p.o., % AMAP (maximal change in mean arterial pressure) [4] [%] | Inhibit. of 5-HTP-Head Twitch ED50 (serotonin receptors; 5-HTP 160 mg/kg i.v. after one hour) | IC50 (5HT2 [5]) [nM] | ED50 (5HT2 [6]) [mg/kg] | inhibition at 1 µM (5HT1A receptor; @ 1 μM, read-out: Brain 5-HT1 Receptor % displaced (% inhibition)) [%] | Inhibit. of 5-HTP-Head Twitch (result in words) (serotonin receptors; @ 10 (mg/kg, p.o.))
1 | O=C(c1ccc(F)cc1)C1CCN(CCn2c(=O)[nH]c3ccsc3c2=O)CC1 [Example 1, 3-[2-[4-(4-Fluorobenzoyl)piperidin-1-yl]ethyl]thieno[3,2-d]pyrimidine-2,4-dione] | 16000 | 0.0063 | 34 | > 10 | -10 | 2.1 mg/kg, p.o. | 0.6 | 0.009 | – | –
2 | CC(=O)n1c(=O)n(CCN2CCC(C(=O)c3ccc(F)cc3)CC2)c(=O)c2ccsc21 [Example 3, 1-Acetyl-3-[2-[4-(4-fluorobenzoyl)piperidin-1-yl]ethyl]thieno[2,3-d]pyrimidine-2,4-dione] | – | 0.0229 | 8000 | 10.0 | -4 | – | 2.4 | 0.025 | 13 | Inact.

Source: US4835157A, “Thieno- and furopyrimidine-2,4-dione piperidine derivatives as serotonin antagonists and alpha adrenergic blocking agents” (Ortho Pharmaceutical Corporation, priority 1988, dated 1989)
